Laboratory results: patent US20100249419A1, “UTILIZATION OF NOVEL COMPOUNDS WITH AMYLOID AFFINITY AND METHOD OF PRODUCING THE SAME” (NIHON MEDI-PHYSICS CO., LTD., priority 2007, published 2010)
pIC50: −log10 of the molar value.

Columns and labels:
[1] = Partition coefficient based on the octanol extraction method; type: physicochemical; conditions: octanol / 10 mmol/L phosphate buffer (pH 7.4); Table 6, Examples 20-21
Experimental: Partition coefficients based on the octanol extraction method (hereinafter referred to as log Poctanol) were measured, which are generally known as an indicator of permeability of compounds through the blood-brain barrier (hereinafter referred to as BBB).
A diethyl ether solution of Compound 1 prepared in Example 3 (Example 8), a diethyl ether solution of Compound 2 prepared in Example 6 (Example 9), and a diethyl ether solution of [^123I]-IMPY prepared in Reference Example 1 (Comparative Example 4) were each diluted with 10 mg/mL ascorbic acid-containing physiological saline solution, and adjusted to a radioactive concentration of 20-30 MBq/mL. To 2 mL of octanol, 10 μL each of the prepared sample solutions was added, 2 mL of 10 mmol/L phosphate buffer (pH 7.4) was added, followed by stirring for 30 seconds. After the mixture was centrifuged with a low-speed centrifuge (2000 rpm×60 min.), the octanol layer and the water layer were sampled each in an amount of 1 mL, and subjected to measurement of radioactivity count with an autowell gamma system (Type: ARC-301B, manufactured by Aloka). Using the obtained radioactivity count, log Poctanol was calculated in accordance with the equation (2).
A diethyl ether solution (Example 20) of Compound 4 prepared in Example 16, a diethyl ether solution (Example 21) of Compound 6 prepared in Example 19, and a diethyl ether solution (Comparative Example 7) of [^123I]-IMPY were each diluted with a 10 mg/mL ascorbic acid-containing physiological saline solution to adjust to a radioactive concentration of 20-30 MBq/mL. To 2 mL of octanol, 10 μL each of the prepared sample solution was added, and 2 mL of 10 mmol/L phosphate buffer (pH 7.4) was further added, followed by stirring for 30 seconds. After the mixture was centrifuged with a low-speed centrifuge (2000 rpm×60 min.), the octanol layer and the water layer were sampled each in an amount of 1 mL, and subjected to measurement of radioactivity count with an autowell gamma system (Type: ARC-301B, manufactured by Aloka). Using the obtained radioactivity count, logPoctanol was calculated in accordance with the equation (4).

[2] = Transferability into brain and clearance; type: in vivo, male Wistar rats; conditions: intravenous injection, rats, Table 7
Experimental: Using Compound 1 (Example 10) and Compound 2 (Example 11), a time course change of radioactive accumulation in brain of male Wistar rats (7-week old) was measured.
A diethyl ether solution of Compound 1 (Example 10) prepared in Example 3, a diethyl ether solution of Compound 2 (Example 11) prepared in Example 6 and a diethyl ether solution of [^123I]-IMPY (Comparative Example 5) prepared in Reference Example 1 were each diluted with 10 mg/mL ascorbic acid-containing physiological saline solution to adjust to a radioactive concentration of 8-12 MBq/mL. 0.05 mL each of the prepared sample solutions was injected under thiopental anesthesia into the tail vein of the rats. The rats were sacrificed by bleeding from abdominal artery, and brains were removed and subjected to measurement of mass of brains and further subjected to measurement of radioactivity (hereinafter referred to as A in this Example) with a single channel analyzer (detector type: SP-20 manufactured by OHYO KOKEN KOGYO Co., Ltd.) 2, 5, 30 and 60 minutes after the injection. Further, the radioactivity level of the rest of the whole body was measured in the same manner as above (hereinafter referred to as B in this Example). Using these measurement results, radioactive distribution per unit weight of brain (% ID/g) at the respective time points were calculated in accordance with the following formula (3).
Three animals were used for the experiment at the respective time points.
Using Compound 4 and Compound 6, a time course change of radioactive accumulation in brain of male Wistar rats (7-week old) was measured.
Compound 4 (Example 22), Compound 6 (Example 23) and a solution of [^123I]-IMPY (Comparative Example 8) prepared above in Reference Example 1 were each diluted with a 10 mg/mL ascorbic acid-containing physiological saline solution to prepare solutions (20-31 MBq/mL in radioactive concentration). 0.05 mL each of the prepared sample solutions was injected under thiopental anesthesia into the tail vein of the respective Wistar rat (7-week old). The rats were sacrificed by bleeding from abdominal artery, and brains were removed and subjected to measurement of mass of brains and further subjected to measurement of radioactivity (hereinafter referred to as A in this Example) with a single channel analyzer (detector type: SP-20 manufactured by OHYO KOKEN KOGYO Co., Ltd.) 2, 5, 30 and 60 minutes after the injection. Further, the radioactivity level of the rest of the whole body was measured in the same manner as above (hereinafter referred to as B in this Example). Using these measurement results, radioactive distribution per unit weight of brain (% ID/g) at the respective time points were calculated in accordance with the following formula (5).

[3] = target: T1, aggregated Aβ (Aβ1-42) injected into amygdaloid nucleus (Homo sapiens, UniProt P05067); experiment: Confirmation of imaging of amyloid in brain (ex vivo autoradiogram, Aβ1-42); set-up: species or system male Wistar rat; conditions: brain slice 60 minutes after tail vein injection
T1 construct: Aβ1-42 (manufactured by Wako) was dissolved in phosphate buffer (pH 7.4); purchased Wako
Experimental: The following experiment was carried out in order to examine whether amyloid in brain can be imaged by the compound of the present invention.
(1) Aβ1-42 (manufactured by Wako) was dissolved in phosphate buffer (pH 7.4) and shaken at 37° C. for 72 hours, to obtain a 1 mg/mL suspension of aggregated Aβ (hereinafter referred to as amyloid suspension in the Examples).
(2) 2.5 μL (corresponding to […]) of the amyloid suspension was injected into an amygdaloid nucleus on one side of a male Wistar rat (7-week old). As a control, 2.5 μL of a phosphate buffered physiological saline solution (pH 7.4) was injected into an amygdaloid nucleus on the other side of the rat. The rats were examined 1 day after the injection of the amyloid suspension and the phosphate buffered physiological saline solution (pH 7.4).
(3) Compound 1 was dissolved in a 10 mg/mL ascorbic acid-containing physiological saline solution to obtain a sample solution (22 MBq/mL in radioactivity concentration in the sample solution). This solution was injected under thiopental anesthesia into the rat through the tail vein (dosage: 0.5 mL, dosed radioactivity: 11-13 MBq equivalent).
(4) Brain was removed 60 minutes after the injection to prepare a brain slice of 10 μm in thickness with a microtome (type: CM3050S, manufactured by LEICA). The brain slice was exposed to an imaging plate for 20 hours, and then image analysis was carried out by use of a Bio-imaging Analyzer (type: BAS-2500; manufactured by FUJIFILM Corporation).
(5) After the completion of the image analysis using the Bio-imaging Analyzer, […]
Thus, it was confirmed that amyloid was deposited on the slice (FIG. 6b).
The same procedures as in Example 12 were performed except using a solution of Compound 2 in a 10 mg/mL ascorbic acid as a sample solution (the radioactive concentration of the sample solution was 25 MBq/mL).
(1) Aβ1-42 (manufactured by Wako) was dissolved in phosphate buffer (pH 7.4) and shaken at 37° C. for 72 hours, to obtain 1 mg/mL of a suspension of aggregated Aβ (hereinafter referred to as amyloid suspension in the Examples).
(3) A sample solution (30 MBq/mL in radioactivity concentration, Example 24) in which Compound 4 was dissolved in a 10 mg/mL ascorbic acid-containing physiological saline solution and a sample solution (30 MBq/mL in radioactivity concentration, Example 25) in which Compound 6 was dissolved in a 10 mg/mL ascorbic acid-containing physiological saline solution were prepared. This solution was injected under thiopental anesthesia into the rat through the tail vein (dosage: 0.5 mL, dosed radioactivity: 11-15 MBq equivalent).
Thus, it was confirmed that amyloid was deposited on the slice (FIG. 12 and FIG. 13).

[4] = tested on: Salmonella typhimurium TA98; experiment: Reverse mutation test (Ames test), TA98; type: cell-based
Experimental: (§1) In order to examine gene mutagenicity of Compounds 3, 5 and 8, reverse mutation test using Salmonella typhimurium TA98 and TA100 (hereinafter referred to as Ames test) was conducted.
(§2) The test was conducted without addition of S9mix and with addition of S9mix. Dimethylsulfoxide (hereinafter referred to as DMSO) was used as a negative control. A positive control was 2-(2-furyl)-3-(5-nitro-2-furyl)acrylamide (hereinafter referred to as AF-2) in case S9mix was not added, and 2-aminoanthracene (hereinafter referred to as 2-AA) in case S9mix was added.
(§3) As a sample solution to be added to a test plate, each compound was dissolved in DMSO to prepare a solution at a concentration of 50 mg/mL, and further, each solution was diluted with DMSO to prepare a solution with 7 dosage (geometric ratio 3). As a sample solution for preparing a sample of positive control, when TA98 was used as a test strain without addition of S9mix, a solution of AF-2 (compound concentration: 1 μg/mL) in DMSO was prepared; when TA100 was used as a test strain without addition of S9mix, a solution of AF-2 (compound concentration: 0.1 μg/mL) in DMSO was prepared; when TA98 was used as a test strain with addition of S9mix, a solution of 2-AA (compound concentration: 5 μg/mL) in DMSO was prepared; and when TA100 was used as a test strain with addition of S9mix, a solution of 2-AA (compound concentration: 10 μg/mL) in DMSO was prepared.
(§4) After each sample solution to be examined and a test strain (TA98 or TA100) were mixed together so as to make the addition amount of each sample to be 0.1 mL/plate, the mixture was multilayered using soft agar on a medium of a test plate, and then incubated at 37° C. for 48 hours. Separately, after each sample solution to be examined, S9mix and a test strain were mixed together so as to make the addition amount of each sample to be 0.1 mL/plate, the mixture was multilayered using soft agar on a medium of a test plate, and then incubated at 37° C. for 48 hours. On the other hand, only DMSO was used as a sample solution to perform the same procedure as above for the negative control. […]

[5] = tested on: Salmonella typhimurium TA100; experiment: Reverse mutation test (Ames test), TA100; type: cell-based
Experimental: as §1, §2, §3, §4

[6] = target: T2, aggregated Aβ (Aβ1-42) amyloid (Homo sapiens, UniProt P05067); experiment: In vitro binding test: inhibition of [^125I]3′-I-BTA-0 binding to amyloid; conditions: [^125I]3′-I-BTA-0 400 pmol/L, amyloid 1 μmol/L, 22° C., 3 hours
T2 construct: Aβ1-42 (manufactured by Wako) was dissolved in phosphate buffer (pH 7.4); purchased Wako
Experimental: Affinity of the present compounds with amyloid was examined by the following in vitro binding tests.
The measured radioactivity level was defined as the background radioactivity level, and used in the calculation of the inhibition ratio (hereinafter referred to as BG).
(9) Using the radioactivity levels measured above in (7) and (8), the inhibition ratio was determined by the following formula (1).
A graph in which values converted by probit transformation from the obtained inhibition ratios were plotted relative to logarithms of concentrations of compounds for evaluation was prepared to obtain an approximate straight line by the least square method.

[7] = International Publication No. WO03/106439; cited from earlier work
[8] = [^125I]-labeled compounds, normal mice; cited from earlier work
[9] = TA98, without addition of S9mix
[10] = TA100, without addition of S9mix

T1 sequence (P05067 672-713): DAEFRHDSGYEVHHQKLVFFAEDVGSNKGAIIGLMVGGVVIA
T2 sequence (P05067 672-713): as above

| Molecule | Mutagenicity ([4]; TA98, with addition of S9mix) | Mutagenicity [4, 9] | Mutagenicity ([5]; TA100, with addition of S9mix) | Mutagenicity [5, 10] | Clearance from normal tissues [8] | further results |
| --- | --- | --- | --- | --- | --- | --- |
| 2-[3′-(2″-hydroxyethoxy)phenyl]-6-[^123I]iodoimidazo[1,2-a]pyridine [Compound 4] | – | – | – | – | – | logPoctanol value [1]: 2.5; Radioactive distribution per unit weight of brain ([2]; After 2 min.): 0.56 % ID/g; Radioactive distribution per unit weight of brain ([2]; After 5 min.): 0.28 % ID/g; Radioactive distribution per unit weight of brain ([2]; After 30 min.): 0.04 % ID/g; Radioactive distribution per unit weight of brain ([2]; After 60 min.): 0.01 % ID/g; Accumulation of radioactivity in amygdaloid nucleus on the amyloid-injected side [3]: marked accumulation of radioactivity |
| OCCOc1cccc(-c2cn3cc(I)ccc3n2)c1 [Compound 5, 2-[3′-(2″-hydroxyethoxy)phenyl]-6-iodoimidazo[1,2-a]pyridine] | Negative | Negative | Negative | Negative | – | – |
| CCOc1ccc(-c2cn3cc(I)ccc3n2)cc1 [Compound 8, 2-(4′-ethoxyphenyl)-6-iodoimidazo[1,2-a]pyridine] | Negative | Negative | Negative | Negative | – | – |
| CCC[CH2][Sn]([CH2]CCC)([CH2]CCC)[c]1ccc2nc(-c3ccc(OCCO)cc3)cn2c1 [Compound 9, 6-tributylstannyl-2-[4′-(2″-hydroxyethoxy)phenyl]imidazo[1,2-a]pyridine] | Negative | Negative | Negative | Negative | – | – |
| Nc1c(/N=N/c2ccc(-c3ccc(/N=N/c4cc(S(=O)(=O)O)c5ccccc5c4N)cc3)cc2)cc(S(=O)(=O)O)c2ccccc12 [Congo Red, reference compound] | – | – | – | – | – | pIC50 [6]: < 6.00 |
| CC(=C(C#N)C#N)c1ccc2cc(N(C)CCF)ccc2c1 [FDDNP, 2-(1-{6-[(2-fluoroethyl)(methyl)amino]-2-naphthyl}ethylidene)malononitrile] | – | – | – | – | – | Reverse mutation test result [7]: positive |
| CN(C)c1ccc(-c2nc3ccc(I)cc3o2)cc1 [IBOX, 6-iodo-2-[4′-(N,N-dimethylamino)phenyl]benzoxazole] | – | – | – | – | insufficient in clearance from normal tissues | – |
| CN(C)c1ccc(-c2cn3cc(I)ccc3n2)cc1 [IMPY, 6-iodo-2-[4′-(N,N-dimethylamino)phenyl]imidazo[1,2-a]pyridine] | – | – | – | – | – | Reverse mutation test result [7]: positive |
| CN(C)c1ccc(-c2nc3ccc(I)cc3s2)cc1 [TZDM, 6-iodo-2-[4′-(N,N-dimethylamino)phenyl]benzothiazole] | – | – | – | – | insufficient in clearance from normal tissues | – |
| CN(C)c1ccc(/C=C/c2ccc(I)cc2)cc1 [m-I-SB, (E)-4-dimethylamino-4′-iodostilbene] | – | – | – | – | insufficient in clearance from normal tissues | – |
